Measurements from patent publication US5885961A, “Methods of using epithelins to modulate cell proliferation” (Bristol-Myers Squibb Company, priority 1995, dated 1999).
“Also recorded” adds a separate entry of the source.

Tests used:
Balb/MK cells [1] = experiment: Murine keratinocyte growth assay (cell count); format: cell-based; conditions: for effect on growth of Balb/MK cells (rodent keratinocytes): FIG. 16A
Protocol: FIG. 16(A-B). (FIG. 16A) Effect of epithelin 1 and epidermal growth factor (EGF) on the growth of Balb/MK cells. Assays were performed as described in Section 6.2., infra. .circle-solid., epithelin 1; o, EGF (FIG. 16B) Effect of various concentrations of epithelin 2 on the epithelin 1 (20 ng/ml) induced growth of murine keratinocytes.
Balb/MK cells were plated at 1×10^4 cells per well in 1 ml of low calcium medium (Weissman and Aaronson, 1983, Cell 32:599-606; Carpenter and Zendegut, 1985, Anal. Biochem. 153:279-282) in 24-well Costar plates and incubated at 37° C. for 4-6 hours. Then media were removed and replaced with 1 ml of medium containing various concentrations of the test compound in triplicate. The control wells received only medium without any test material. The plates were incubated at 37° C. for 4 days, then medium was removed, wells were rinsed two times with 1 ml of phosphate-buffered saline, and the cells were detached with trypsin-EDTA and counted.

NRK-SA6 cells [2] = conditions: in the presence of TGFβ; Roberts et al., 1981; cited from earlier work
NRK-SA6 cells [3] = experiment: Soft agar colony assay in the presence of TGFβ; format: cell-based, rat
Protocol: FIG. 17. Effect of epithelin 1 and 2 on NRK-SA6 cell colony formation in soft agar in the presence of TFGβ (1 ng/ml). The colony formation assay used is described in Section 6.2.3, infra. Solid bars, epithelin 1; stippled bar, epidermal growth factor; open bar, epithelin 2; hatched bar, 20 ng/ml epithelin 1 plus 500 ng/ml epithelin 2.
A 0.38 ml base layer of 0.5% agar (Agar Noble; Difco Laboratories, Detroit, Mich.) in DMEM containing 10% heat inactivated FBS was added to 24 well Costar tissue culture plates. 0.38 ml of 0.3% agar containing the same medium-FBS mixture, 6-12×10^3 test cells, and the test proteins at various concentrations were overlaid on the basal layer of agar. The plates were incubated at 37° C. in a humidified atmosphere of 5% CO2 in air. Colonies were enumerated unfixed and unstained, and the number of colonies was scored between days 7 and 10. Colonies were defined as a cluster of at least eight cells.

[4] = test system: A431 human epidermoid carcinoma cells; experiment: Cell growth inhibitory activity (GIA), 125I-deoxyuridine incorporation into DNA; format: cell-based
Protocol: The cell growth inhibitory activity (GIA) assays were performed in flat-bottom 96 well plates (Falcon 3072). Human epidermoid carcinoma of vulva cells (A431) were used as test cells for GIA. 3.5×10^3 cells in 50 μl of test medium (DMEM supplemented with 5% heat inactivated fetal bovine serum (FBS), penicillin/streptomycin (PS) and glutamine) were placed in all wells except peripheral wells. The peripheral wells received 50 μl PBS. Three hours later, 50 μl of test sample in test medium was added to each well, while control wells received only 50 μl of test medium. Three wells were used for each concentration of test sample. Plates were incubated at 37° C. for 2-3 days. Then, 100 μl of a solution of […] (^125 I-IUdR, 4Ci/mg-0.5 mCi/ml, 2 μl/ml in test medium) was added to each well and plates were incubated at 37° C. After 4-6 hours, the medium was aspirated from the wells, which were then washed once with 200 μl PBS. Then, 200 μl methanol was added to each well, plates were incubated for 10 minutes at room temperature, and the methanol was removed by aspiration. 200 μl of 1M sodium hydroxide was added to each well, the plates were incubated for 30 minutes at 37° C. Sodium hydroxide was removed with titertek plugs (Flow Labs). The plugs were transferred into 12×75 mm plastic tubes and counted in a gamma counter to quantify ^125 I-IUdR incorporation.

NRK cells = experiment: Mitogenic activity on NRK cells in monolayer; format: cell-based, rat
monkey kidney COS1 cells = experiment: 125I-deoxyuridine incorporation into DNA, COS1; format: cell-based
EGF receptors = EGF receptors (Homo sapiens, UniProt P00533); experiment: Binding of 125I-EGF to its receptors
[5] = Resistance of bioactivity to chemical, heat and enzyme treatment; format: physicochemical
Protocol: Epithelin 1 and epithelin 2 are resistant to treatment with 1M acetic acid, 1M ammonium hydroxide, 6M urea, 0.01M sodium metaperiodate, to heating at 56° C. for 30 minutes, and to treatment with various glycosidases or lipases. However, epithelin activity was sensitive to reduction, to reduction and 4-vinylpyridine treatment, and to digestion with proteinases such as trypsin, endoproteinase Lys-C, and endoproteinase Glu-C (V8).

[6] = test system: human fibroblasts and several other human tumor cells; experiment: 125I-deoxyuridine incorporation into DNA, human fibroblasts and other human tumor cells; format: cell-based; conditions: maximum dose tested: 20 ng/ml epithelin 1, 270 ng/ml epithelin 2
Balb/MK cells [7] = experiment: Growth stimulatory activity (GSA), 125I-deoxyuridine incorporation into DNA of murine keratinocytes; format: cell-based
Protocol: FIG. 15(A-B). (FIG. 15A) Effect of epithelin 1 and epithelin 2 on the stimulation of ^125 I-deoxyuridine incorporation into DNA of the murine keratinocyte cell line Balb/MK. 2,000-4,000 cells were plated per well in 96 well plates in low-calcium medium containing 5% dialyzed FBS. Then GSA assays were performed as described in Section 6.2., infra. .circle-solid., epithelin 1; o, epithelin 2. (FIG. 15B) Effect of various concentrations of epithelin 2 on epithelin 1 (20 ng/ml) elicited incorporation of ^125 I-deoxyuridine into DNA of Balb/MK cells.
Balb/MK cells were also used as indicator cells in 96 well plates to assess the growth inhibitory activity (GIA) or growth stimulatory activity (GSA) of a test material using ^125 I-deoxyuridine incorporation into DNA as described in the previous section.

[8] = test system: human colon carcinoma cell line HCT 116; experiment: 125I-deoxyuridine incorporation into DNA, HCT 116; format: cell-based; conditions: maximum dose tested: 20 ng/ml epithelin 1, 270 ng/ml epithelin 2
mink lung CCL 64 cells = experiment: 125I-deoxyuridine incorporation into DNA, CCL 64; format: cell-based

Substance	effect on growth of Balb/MK cells (rodent keratinocytes) (Balb/MK cells [1])	anchorage-independent growth of rat kidney cells NRK-SA6 (NRK-SA6 cells [2])	inhibition of epithelin 1-induced colony formation in soft agar (NRK-SA6 cells [3]; epithelin 2 at ~85 nM, epithelin 1 20 ng/ml)	anchorage-independent growth (colony formation in soft agar) of NRK cells (NRK-SA6 cells [3]; in the presence of TGFβ 1 ng/ml, FIG. 17)	50% inhibition of DNA synthesis (125I-deoxyuridine incorporation) ([4]; A431 cells, purified protein, FIG. 14)	IC50 ([4]; A431 cells, read-out: concentration for 50% inhibition of 125I-deoxyuridine incorporation)	Specific Activity ([4]; final purification step Anal TSK-250 (Table III))	specific activity of purified protein (GIA) ([4]; one unit = amount inhibiting 125I-deoxyuridine incorporation into A431 cells by 50%)	mitogenic activity on NRK cells in monolayer (NRK cells)	effect on 125I-deoxyuridine incorporation into DNA (monkey kidney COS1 cells)	effect on binding of 125I-EGF to its receptors (EGF receptors)	resistance to 1M acetic acid, 1M ammonium hydroxide, 6M urea, 0.01M sodium metaperiodate, heating at 56° C. for 30 minutes, glycosidases or lipases [5]	sensitivity of activity to reduction, reduction and 4-vinylpyridine treatment, and proteinases (trypsin, Lys-C, Glu-C) [5]	effect on human fibroblasts and several other human tumor cells [6]	IC50 (Balb/MK cells [1]; epithelin 1 20 ng/ml, FIG. 16B, read-out: 50% inhibition of epithelin 1-induced growth of Balb/MK cells)	IC50 (Balb/MK cells [7]; Balb/MK cells, epithelin 1 20 ng/ml, FIG. 15B, read-out: 50% inhibition of epithelin 1 elicited 125I-deoxyuridine incorporation)	effect on 125I-deoxyuridine incorporation into DNA of Balb/MK cells (Balb/MK cells [7]; FIG. 15A)	effect on growth of HCT 116 cells [8]	effect on 125I-deoxyuridine incorporation into DNA (mink lung CCL 64 cells)
EGF: epidermal growth factor, comparison growth factor (NSDSECPLSHDGYCLHDGVCMYIEALDKYACNCVVGYIGERCQYRDLKWWELR; UniProt P01133 971-1023, looked up) [reference compound]	did not proliferate in the absence of EGF or epithelin 1	induces anchorage-independent growth	–	–	–	–	–	–	–	–	–	–	–	–	–	–	–	–	–
TGFα: transforming growth factor-α	–	induces anchorage-independent growth	–	–	–	–	–	–	–	–	–	–	–	–	–	–	–	–	–
epithelin 2: single chain polypeptide of 57 amino acid residues, 12 cysteines, purified from rat kidney; antagonizes epithelin 1 growth stimulation (VVCPDAKTQCPDDSTCCELPTGKYGCCPMPNAICCSDHLHCCPQDTVCDLIQSKCIS)	did not exhibit any significant effect; also recorded: no effect	–	about 50%	did not; also recorded: no effect	450 ng/well	~0.75 µM	3,810 Units/mg	3.8×10^3 units/mg protein	not	significantly inhibited	Neither epithelin 1 nor epithelin 2 significantly affected the binding	stable; also recorded: resistant	sensitive	Neither protein exhibited any significant effect	~0.007 µM	~0.021 µM	did not show any significant effect	did not show any effect	significantly inhibited
